Data reported in patent US10961539B2, “Promoter system inducing expression by 3-hydroxypropionic acid and method for biological production of 3-hydroxypropionic acid using same” (NOROO IC Co., Ltd., priority 2015, dated 2021).
Several values for one entry are separate records, joined by “and”; a condition that tells them apart may be missing. Equal entries are not always repeated. Where two headings read alike, the source gives them in different places.

Assays:
[1] = tested on: mmsadh; assay: GFP reporter inserted at mmsadh position; assay type: cell-based, Pseudomonas denitrificans; details: w 3-HP 25 mM
Text: The effect of the O1 and O2 operators on biosynthesis of the C4-LysR protein and the mmsadh expression was examined by using a green fluorescent protein (GFP) as a reporter (Table 2). In Table 2, the effect of the C4-LysR protein and the O1 and O2 operators on the expression of the C4-LysR and the mmsadh. The relative size of the GFP was shown relative to the wild type in the absence of 3-HP. the C4-LysR protein was either not present or was produced by a constitutive promoter, and a plasmid was prepared to control the expression of the GFP upon the existing promoter having the O1 and O2 operators. Then, the experiment was carried out by inserting the prepared plasmid into a host of P. denitrificans from which genes between the C4-LysR and the mmsadh was deleted. Accordingly, the expression of the GFP was suppressed by the C4-LysR protein itself. That is, when the C4-LysR is expressed, the GFP expression was reduced by more than 10-fold. In addition, the expression regulation was also constant regardless of the presence of 3-HP. In this regard, it was confirmed that the transcription of C4-LysR mRNA was negatively regulated by the C4-LysR protein. This experiment was repeated by using a promoter that randomized the O1 and O2 operators to eliminate the symmetrical dyad. As a result, in the case where the O1 or O2 operator site was randomized, the GFP expression was not regulated by the C4-LysR protein, referring that the C4-LysR protein in the P. denitrificans strain was negatively regulated by the strain itself.
Meanwhile, the effect of the O1 and O2 operators on the mmsadh gene expression was examined in a similar manner. That is, the C4-LysR protein was constitutively expressed, and a plasmid was prepared so that GFP can be located after a promoter having O1 and O2 promoters. Here, an O1 or O2 operator was mutated so that the symmetrical dyad of an O1 or O2 site was randomized. As a result, when the O1 or O2 site was mutated, the phenomenon of up-regulation of transcription by 3-HP disappeared. That is, it means that the O1 and O2 operators are all essential sites for up-regulation of the expression by 3-HP.

[2] = tested on: mmsadh; assay type: cell-based, microorganisms shown in Table 1
[3] = tested on: mmsadh; assay: RT-PCR relative mRNA level of 3-HP catabolic gene

SMILES: O=C(O)CCO [3-HP, 3-hydroxypropionic acid]
- relative size of GFP (relative to wild type in the absence of 3-HP) ([1]; O1 & O2 mutation): 3
- relative size of GFP (relative to wild type in the absence of 3-HP) ([1]; O1 mutation): 3
- relative size of GFP (relative to wild type in the absence of 3-HP) ([1]; O2 mutation): 3
- relative size of GFP (relative to wild type in the absence of 3-HP) ([1]; wildtype): 55
- relative size of GFP (relative to wild type in the absence of 3-HP) ([1]; ΔC4-LysR): 3
- Relative mRNA level mmsadh + 3-HP [2]: 5.21 and 5.19
- Relative mRNA level mmsadh + 3-HP ([2]; Achromobacter denitrificans, + 3-HP): 6.34
- Relative mRNA level mmsadh + 3-HP ([2]; Acidovorax avenae subsp., + 3-HP): 5.98
- Relative mRNA level mmsadh + 3-HP ([2]; Acidovorax sp., + 3-HP): 6.04
- Relative mRNA level mmsadh + 3-HP ([2]; Acinetobacter baumannii, + 3-HP): 5.76
- Relative mRNA level mmsadh + 3-HP ([2]; Aeromonas hydrophilia, + 3-HP): 6.14
- Relative mRNA level mmsadh + 3-HP ([2]; Agrobacterium sp., + 3-HP): 6.56
- Relative mRNA level mmsadh + 3-HP ([2]; Alcaligenes faecalis, + 3-HP): 5.73
- Relative mRNA level mmsadh + 3-HP ([2]; Alcanivorax hongdengensis, + 3-HP): 6.58
- Relative mRNA level mmsadh + 3-HP ([2]; Alicychphilus denitrificans, + 3-HP): 6.01
- Relative mRNA level mmsadh + 3-HP ([2]; Alteromonas marina, + 3-HP): 5.73
- Relative mRNA level mmsadh + 3-HP ([2]; Amycolatopsis sp., + 3-HP): 6.05
- Relative mRNA level mmsadh + 3-HP ([2]; Anaeromyxobacter dehalogenans, + 3-HP): 5.44
- Relative mRNA level mmsadh + 3-HP ([2]; Azospirillum brasilensse, + 3-HP): 6.05
- Relative mRNA level mmsadh + 3-HP ([2]; Azotobacter vinelandii, + 3-HP): 5.87
- Relative mRNA level mmsadh + 3-HP ([2]; Beijerinckia indica, + 3-HP): 5.01
- Relative mRNA level mmsadh + 3-HP ([2]; Bordetella avium, + 3-HP): 4.98
- Relative mRNA level mmsadh + 3-HP ([2]; Bradyrhizobium japonicum, + 3-HP): 5.49
- Relative mRNA level mmsadh + 3-HP ([2]; Burkholderia ambifaria, + 3-HP): 5.13
- Relative mRNA level mmsadh + 3-HP ([2]; Castellaniella defragrans, + 3-HP): 5.98
- Relative mRNA level mmsadh + 3-HP ([2]; Catenulispora acidiphilia, + 3-HP): 5.24
- Relative mRNA level mmsadh + 3-HP ([2]; Caulobacter sp., + 3-HP): 5.96
- Relative mRNA level mmsadh + 3-HP ([2]; Chromobacterium violaceum, + 3-HP): 6.31
- Relative mRNA level mmsadh + 3-HP ([2]; Collimonas arenae, + 3-HP): 5.87
- Relative mRNA level mmsadh + 3-HP ([2]; Comamonas testosteroni, + 3-HP): 4.96
- Relative mRNA level mmsadh + 3-HP ([2]; Corynebacterium vitaeruminis, + 3-HP): 5.89
- Relative mRNA level mmsadh + 3-HP ([2]; Cupriavidus necator, + 3-HP): 6.05
- Relative mRNA level mmsadh + 3-HP ([2]; Curvibacter gracilus, + 3-HP): 3.99
- Relative mRNA level mmsadh + 3-HP ([2]; Delftia acidovorans, + 3-HP): 4.03
- Relative mRNA level mmsadh + 3-HP ([2]; Ferrimonas balearica, + 3-HP): 5.17
- Relative mRNA level mmsadh + 3-HP ([2]; Glaciecola nitratireducens, + 3-HP): 4.81
- Relative mRNA level mmsadh + 3-HP ([2]; Gordonia bronchialis, + 3-HP): 5.21
- Relative mRNA level mmsadh + 3-HP ([2]; Hahella chijuensis, + 3-HP): 5.97
- Relative mRNA level mmsadh + 3-HP ([2]; Halomonas elongata, + 3-HP): 4.34
- Relative mRNA level mmsadh + 3-HP ([2]; Hirschia litorea, + 3-HP): 4.56
- Relative mRNA level mmsadh + 3-HP ([2]; Idiomarina sp., + 3-HP): 5.43
- Relative mRNA level mmsadh + 3-HP ([2]; Janthinobacterium lividum, + 3-HP): 5.01
- Relative mRNA level mmsadh + 3-HP ([2]; Kitasatospora setae, + 3-HP): 5.25
- Relative mRNA level mmsadh + 3-HP ([2]; Kutzneria albida, + 3-HP): 5.61
- Relative mRNA level mmsadh + 3-HP ([2]; Methylobacterium sp., + 3-HP): 598
- Relative mRNA level mmsadh + 3-HP ([2]; Methylocystis sp., + 3-HP): 4.91
- Relative mRNA level mmsadh + 3-HP ([2]; Novosphingobium sp., + 3-HP): 6.04
- Relative mRNA level mmsadh + 3-HP ([2]; Oceanimonas smirnovii, + 3-HP): 4.88
- Relative mRNA level mmsadh + 3-HP ([2]; Paracoccus sp., + 3-HP): 4.96
- Relative mRNA level mmsadh + 3-HP ([2]; Parvibaculum lavamentivorans, + 3-HP): 4.99
- Relative mRNA level mmsadh + 3-HP ([2]; Phenylobacterium kunshanensis, + 3-HP): 5.02
- Relative mRNA level mmsadh + 3-HP ([2]; Photobacterium gaetbuleda, + 3-HP): 5.06
- Relative mRNA level mmsadh + 3-HP ([2]; Polynucleobacter necessarius asymbioticus, + 3-HP): 5.37
- Relative mRNA level mmsadh + 3-HP ([2]; Pseudoalteromonas carrgeenovora, + 3-HP): 5.03
- Relative mRNA level mmsadh + 3-HP ([2]; Pseudogulbenkiania sp., + 3-HP): 5.36
- Relative mRNA level mmsadh + 3-HP ([2]; Pseudomonas denitrificans ATCC13867, + 3-HP): 5.43
- Relative mRNA level mmsadh + 3-HP ([2]; Pseudomonas fluorescens, + 3-HP): 4.70
- Relative mRNA level mmsadh + 3-HP ([2]; Pseudomonas knackmussii, + 3-HP): 5.96
- Relative mRNA level mmsadh + 3-HP ([2]; Pseudomonas protegens, + 3-HP): 5.01
- Relative mRNA level mmsadh + 3-HP ([2]; Pseudoxanthomonas spadix, + 3-HP): 4.96
- Relative mRNA level mmsadh + 3-HP ([2]; Psychrobacter phenylpyruvicus, + 3-HP): 5.03
- Relative mRNA level mmsadh + 3-HP ([2]; Rhodomicrobium vannielli, + 3-HP): 6.02
- Relative mRNA level mmsadh + 3-HP ([2]; Segniliparus rotundus, + 3-HP): 4.32
- Relative mRNA level mmsadh + 3-HP ([2]; Shewanella oneidensis, + 3-HP): 4.07
- Relative mRNA level mmsadh + 3-HP ([2]; Simiduia agarovorans, + 3-HP): 4.87
- Relative mRNA level mmsadh + 3-HP ([2]; Sinorhizobium meliloti, + 3-HP): 4.07
- Relative mRNA level mmsadh + 3-HP ([2]; Sphingobium chlorophenolicum, + 3-HP): 4.86
- Relative mRNA level mmsadh + 3-HP ([2]; Sphingomonas wittichii, + 3-HP): 6.42
- Relative mRNA level mmsadh + 3-HP ([2]; Sphingopyxis alaskensis, + 3-HP): 6.94
- Relative mRNA level mmsadh + 3-HP ([2]; Stenotrophomonas maltophilia, + 3-HP): 5.21
- Relative mRNA level mmsadh + 3-HP ([2]; Streptomyces nodosus, + 3-HP): 5.14
- Relative mRNA level mmsadh + 3-HP ([2]; Tatlockia micdadei, + 3-HP): 5.65
- Relative mRNA level mmsadh + 3-HP ([2]; Thalassospira xiamenensis, + 3-HP): 6.10
- Relative mRNA level mmsadh + 3-HP ([2]; Variovorax paradoxus, + 3-HP): 4.97
- Relative mRNA level mmsadh + 3-HP ([2]; Verminephrobacter eiseniae, + 3-HP): 5.14
- Relative mRNA level mmsadh + 3-HP ([2]; Vibrio furnissii, + 3-HP): 4.91
- Relative mRNA level mmsadh + 3-HP ([2]; Xanthobacter autotrophicus, + 3-HP): 5.41
- Relative mRNA level mmsadh + 3-HP ([2]; Xanthomonas campestri, + 3-HP): 5.09
- increase of expression of mmsadh by 3-HP ([2]; in the microorganisms (Table 7), 25 mM 3-HP in nutrient medium): 16 fold
- fold increase of mmsadh mRNA expression ([3]; cells exposed to 25 mmol/L 3-HP vs no 3-HP, M9 medium, rpoD reference gene): 137 fold
- mmsadh expression on addition of 3-HP ([3]; strain with C4 LysR gene removed): did not increase the expression
